Data from patent publication US20090312288A1 (TAKEDA PHARMACEUTICAL COMPANY LIMITED, priority 2008, published 2009).

These compounds were tested against Aurora B/INCENP (Homo sapiens, UniProt Q96GD4) (assay: Determination of inhibition of AIK: Aurora B/INCENP direct fluorescence polarization (IMAP) assay). Details: 10 uM ATP, 0.8 nM Aurora B/INCENP; values given as bins; read-out: IC50 of Exemplified Compounds Against AIK B.
Type: biochemical

Chain of Aurora B/INCENP (Q96GD4 whole entry): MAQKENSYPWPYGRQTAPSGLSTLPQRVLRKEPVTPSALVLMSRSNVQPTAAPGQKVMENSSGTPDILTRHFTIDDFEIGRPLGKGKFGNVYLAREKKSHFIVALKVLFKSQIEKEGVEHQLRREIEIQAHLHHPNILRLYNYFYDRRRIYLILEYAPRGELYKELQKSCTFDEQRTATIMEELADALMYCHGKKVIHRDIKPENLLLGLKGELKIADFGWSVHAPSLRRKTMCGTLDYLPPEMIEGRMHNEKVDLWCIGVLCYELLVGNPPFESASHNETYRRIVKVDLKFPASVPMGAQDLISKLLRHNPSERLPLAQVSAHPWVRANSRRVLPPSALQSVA
Chain of Aurora B/INCENP (Q9NQS7 whole entry partner): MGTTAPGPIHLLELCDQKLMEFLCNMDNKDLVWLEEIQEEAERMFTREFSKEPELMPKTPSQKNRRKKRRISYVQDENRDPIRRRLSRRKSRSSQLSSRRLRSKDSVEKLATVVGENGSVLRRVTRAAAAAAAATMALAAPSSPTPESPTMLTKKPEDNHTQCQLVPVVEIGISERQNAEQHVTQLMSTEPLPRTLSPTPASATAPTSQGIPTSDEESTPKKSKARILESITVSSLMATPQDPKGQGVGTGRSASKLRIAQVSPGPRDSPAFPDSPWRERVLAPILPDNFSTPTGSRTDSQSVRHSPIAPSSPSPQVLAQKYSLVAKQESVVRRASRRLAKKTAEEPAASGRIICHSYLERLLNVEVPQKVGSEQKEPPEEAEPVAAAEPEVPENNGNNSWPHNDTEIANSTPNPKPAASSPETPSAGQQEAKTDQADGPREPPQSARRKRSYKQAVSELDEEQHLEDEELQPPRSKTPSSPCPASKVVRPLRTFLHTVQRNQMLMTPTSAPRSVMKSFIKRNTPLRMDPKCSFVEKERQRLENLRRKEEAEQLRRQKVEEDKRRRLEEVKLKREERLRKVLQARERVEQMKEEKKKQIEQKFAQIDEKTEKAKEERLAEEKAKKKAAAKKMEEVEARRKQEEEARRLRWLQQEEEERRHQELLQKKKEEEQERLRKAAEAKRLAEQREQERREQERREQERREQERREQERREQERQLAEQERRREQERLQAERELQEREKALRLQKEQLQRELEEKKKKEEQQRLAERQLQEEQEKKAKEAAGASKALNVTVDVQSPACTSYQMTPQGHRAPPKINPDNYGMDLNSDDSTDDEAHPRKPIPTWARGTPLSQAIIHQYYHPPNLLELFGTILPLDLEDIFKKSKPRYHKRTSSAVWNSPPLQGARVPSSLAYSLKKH

SMILES	IC50 [nM]
CCSc1cccc(-c2ccc(OCC3CCN(C)CC3)c3[nH]c4ncc(C)cc4c23)c1 [Compound 183]	> 13
CN1CCC(COc2ccc(-c3cccc(C(=O)NC4CC4)c3)c3c2[nH]c2ncc(Cl)cc23)CC1 [Compound 285, 3-(3-chloro-8-((1-methylpiperidin-4-yl)methoxy)-9H-pyrido[2,3-b]indol-5-yl)-N-cyclopropylbenzamide]	8.6 to 13
CCS(=O)(=O)c1cccc(-c2cc(C(=O)NCCCN3CCN(C)CC3)c(C)c3[nH]c4ncc(C)cc4c23)c1 [Compound 95, 5-(3-(ethylsulfonyl)phenyl)-3,8-dimethyl-N-(3-(4-methylpiperazin-1-yl)propyl)-9H-pyrido[2,3-b]indole-7-carboxamide]	> 13
Cc1cnc2[nH]c3c(OCC4CCN(C)CC4)ccc(-c4cccc(NC(=O)C5CC5)c4)c3c2c1 [Compound 182, N-(3-(3-methyl-8-((1-methylpiperidin-4-yl)methoxy)-9H-pyrido[2,3-b]indol-5-yl)phenyl)cyclopropanecarboxamide]	5.6 to 8.5
CCS(=O)(=O)c1cccc(-c2cc(CN3CCOCC3)cc3[nH]c4ncc(C)cc4c23)c1 [Compound 136, 5-(3-Ethanesulfonyl-phenyl)-3-methyl-7-morpholin-4-ylmethyl-9H-pyrido[2,3-b]indole]	> 13
Cc1cnc2[nH]c3c(C)ccc(SCc4ccccc4)c3c2c1 [Compound 25, 5-(benzylthio)-3,8-dimethyl-9H-pyrido[2,3-b]indole]	> 13
CCS(=O)(=O)c1cccc(-c2ccc(OC[C@@H]3CCN(C)C3)c3[nH]c4ncc(C)cc4c23)c1 [Compound 187, (R)-5-(3-(ethylsulfonyl)phenyl)-3-methyl-8-((1-methylpyrrolidin-3-yl)methoxy)-9H-pyrido[2,3-b]indole]	> 13
CCS(=O)(=O)c1cccc(-c2cc(CN(C)C)cc3[nH]c4ncc(C)cc4c23)c1 [Compound 135, [5-(3-Ethanesulfonyl-phenyl)-3-methyl-9H-pyrido[2,3-b]indol-7-ylmethyl]-dimethyl-amine]	> 13
CCS(=O)(=O)c1cccc(-c2cc(C(=O)NCCOCCO)c(C)c3[nH]c4ncc(C)cc4c23)c1 [Compound 111]	5.6 to 8.5
CCS(=O)(=O)c1cccc(-c2cnc(OCCCN(C)C)c3[nH]c4ncc(C)cc4c23)c1 [Compound 52, {3-[5-(3-Ethanesulfonyl-phenyl)-3-methyl-9H-dipyrido[2,3-b;4′,3′-d]pyrrol-8-yloxy]-propyl}-dimethyl-amine]	8.6 to 13
CCNS(=O)(=O)c1cccc(-c2cc(C(=O)NC3CCN(C)CC3)c(C)c3[nH]c4ncc(C)cc4c23)c1 [Compound 153]	> 13
CCS(=O)(=O)c1cccc(-c2ccc(OCCN3CCOCC3)c3[nH]c4ncc(Cl)cc4c23)c1 [Compound 255, 4-(2-(3-chloro-5-(3-(ethylsulfonyl)phenyl)-9H-pyrido[2,3-b]indol-8-yloxy)ethyl)morpholine]	> 13
CCS(=O)(=O)c1cccc(-c2cc(C(=O)N3CCC3)c(C)c3[nH]c4ncc(C)cc4c23)c1 [Compound 97, azetidin-1-yl(5-(3-(ethylsulfonyl)phenyl)-3,8-dimethyl-9H-pyrido[2,3-b]indol-7-yl)methanone]	> 13
CCS(=O)(=O)c1cccc(-c2ccc(OCCCOC)c3[nH]c4ncc(C)cc4c23)c1 [Compound 427, 5-(3-(ethylsulfonyl)phenyl)-8-(3-methoxypropoxy)-3-methyl-9H-pyrido[2,3-b]indole]	5.6 to 8.5
CCS(=O)(=O)c1cccc(-c2ccc(OC[C@H](O)CN(C)C)c3[nH]c4ncc(C)cc4c23)c1 [Compound 232, (R)-1-(dimethylamino)-3-(5-(3-(ethylsulfonyl)phenyl)-3-methyl-9H-pyrido[2,3-b]indol-8-yloxy)propan-2-ol]	5.6 to 8.5
Cc1cnc2[nH]c3c(OC[C@@H]4CN(CCO)CCO4)ccc(-c4cccc(S(=O)(=O)C5CC5)c4)c3c2c1 [Compound 363, (S)-2-(2-((5-(3-(cyclopropylsulfonyl)phenyl)-3-methyl-9H-pyrido[2,3-b]indol-8-yloxy)methyl)morpholino)ethanol]	4 to 5.5
CCS(=O)(=O)c1cccc(-c2cc(C(=O)NCCO)c(C)c3[nH]c4ncc(C)cc4c23)c1 [Compound 101, 5-(3-(ethylsulfonyl)phenyl)-N-(2-hydroxyethyl)-3,8-dimethyl-9H-pyrido[2,3-b]indole-7-carboxamide]	4 to 5.5
CCS(=O)(=O)c1cccc(-c2ccc(OCCCn3cnnc3)c3[nH]c4ncc(C)cc4c23)c1 [Compound 416, 8-(3-(4H-1,2,4-triazol-4-yl)propoxy)-5-(3-(ethylsulfonyl)phenyl)-3-methyl-9H-pyrido[2,3-b]indole]	5.6 to 8.5
CCS(=O)(=O)c1cccc(-c2ccc(OCCOC)c3[nH]c4ncc(C)cc4c23)c1 [Compound 208, 5-(3-(ethylsulfonyl)phenyl)-8-(2-methoxyethoxy)-3-methyl-9H-pyrido[2,3-b]indole]	8.6 to 13
CCS(=O)(=O)c1cccc(-c2cc(NC(=O)C3CC3)c(OC)c3[nH]c4ncc(C)cc4c23)c1 [Compound 242, N-(5-(3-(ethylsulfonyl)phenyl)-8-methoxy-3-methyl-9H-pyrido[2,3-b]indol-7-yl)-cyclopropanecarboxamide]	8.6 to 13
CCS(=O)(=O)c1cccc(-c2ccc(OCCO)c3[nH]c4ncc(C)cc4c23)c1 [Compound 216, 2-(5-(3-(ethylsulfonyl)phenyl)-3-methyl-9H-pyrido[2,3-b]indol-8-yloxy)ethanol]	5.6 to 8.5

The next lines start with the values.

IC50 [nM]	SMILES
< 4	CCS(=O)(=O)c1cccc(-c2cc(CO)cc3[nH]c4ncc(C)cc4c23)c1 [Compound 134, [5-(3-Ethanesulfonyl-phenyl)-3-methyl-9H-pyrido[2,3-b]indol-7-yl]-methanol]
< 4	CCS(=O)(=O)c1cccc(-c2ccc(OCCCN(CCOP(=O)(O)O)CC(F)(F)F)c3[nH]c4ncc(C)cc4c23)c1 [Compound 343, 2-((3-(5-(3-(ethylsulfonyl)phenyl)-3-methyl-9H-pyrido[2,3-b]indol-8-yloxy)propyl)(2,2,2-trifluoroethyl)amino)ethyl dihydrogen phosphate]
4 to 5.5	CCS(=O)(=O)c1cccc(-c2ccc(OC[C@@H](O)CO)c3[nH]c4ncc(C)cc4c23)c1 [Compound 230, (S)-3-(5-(3-(ethylsulfonyl)phenyl)-3-methyl-9H-pyrido[2,3-b]indol-8-yloxy)propane-1,2-diol]
< 4	CCS(=O)(=O)c1cccc(-c2ccc(OCCCn3ccnc3)c3[nH]c4ncc(Cl)cc4c23)c1 [Compound 301, 8-(3-(1H-imidazol-1-yl)propoxy)-3-chloro-5-(3-(ethylsulfonyl)phenyl)-9H-pyrido[2,3-b]indole]
4 to 5.5	Cc1cnc2[nH]c3c(OC[C@@H]4CN(CCOP(=O)(O)O)CCO4)ccc(-c4cccc(S(=O)(=O)C5CC5)c4)c3c2c1 [Compound 373, (S)-2-(2-((5-(3-(cyclopropylsulfonyl)phenyl)-3-methyl-9H-pyrido[2,3-b]indol-8-yloxy)methyl)morpholino)ethyl dihydrogen phosphate]
4 to 5.5	Cc1cnc2[nH]c3c(OC[C@H](CN(C)C)OP(=O)(O)O)ccc(-c4cccc(S(=O)(=O)C5CC5)c4)c3c2c1 [Compound 314, (S)-1-(5-(3-(cyclopropylsulfonyl)phenyl)-3-methyl-9H-pyrido[2,3-b]indol-8-yloxy)-3-(dimethylamino)propan-2-yl dihydrogen phosphate]
< 4	CCS(=O)(=O)c1cccc(-c2ccc(O)c3[nH]c4ncc(C)cc4c23)c1 [Compound 158, 5-(3-(ethylsulfonyl)phenyl)-3-methyl-9H-pyrido[2,3-b]indol-8-ol]
< 4	Cc1cnc2[nH]c3c(OC[C@H]4CNCCO4)ccc(-c4cccc(S(=O)(=O)C5CC5)c4)c3c2c1 [Compound 359, (R)-2-((5-(3-(cyclopropylsulfonyl)phenyl)-3-methyl-9H-pyrido[2,3-b]indol-8-yloxy)methyl)morpholine]
< 4	CCS(=O)(=O)c1cccc(-c2ccc(OCc3cccc(F)n3)c3[nH]c4ncc(C)cc4c23)c1 [Compound 433, 5-(3-(ethylsulfonyl)phenyl)-8-((6-fluoropyridin-2-yl)methoxy)-3-methyl-9H-pyrido[2,3-b]indole]
< 4	Cc1cnc2[nH]c3c(OC[C@@H]4CNCCO4)ccc(-c4cccc(S(=O)(=O)C5CC5)c4)c3c2c1 [Compound 358, (S)-2-((5-(3-(cyclopropylsulfonyl)phenyl)-3-methyl-9H-pyrido[2,3-b]indol-8-yloxy)methyl)morpholine]
